Test results published in patent US6511989B2, “Acylaminoalkyl-substituted benzenesulfonamide derivatives, their preparation, their use and pharmaceutical preparations comprising them” (Aventis Pharma Deutschland GmbH, priority 2000, dated 2003).

Columns and labels:
[1] = tested on: papillary muscle of the guinea pig; experiment: Action potential duration on the papillary muscle of the guinea pig (hypoxia-shortened APD90); details: 2 μM; 60 min after addition; relative to shortening caused by hypoxia
From the text: Action Potential Duration on the Papillary Muscle of the Guinea Pig
ATP deficiency states observed during ischemia in the cardiac muscle cell, lead to a shortening of the action potential duration (ATP=adenosine triphosphate). They are regarded as one of the causes of so-called reentry arrhythmias, which can cause sudden cardiac death. The opening of ATP-sensitive potassium channels by the lowering of the ATP level is regarded as the cause of this. For the measurement of the action potential on the papillary muscle of the guinea pig a standard microelectrode technique was employed.
Guinea pigs of both sexes were killed by a blow to the head, the hearts were removed, and the papillary muscles were separated out and suspended in an organ bath. The organ bath was rinsed with Ringer's solution (136 mmol/l of NaCl, 3.3 mmol/l of KCl, 2.5 mmol/l of CaCl2, 1.2 mmol/l of KH2PO4, 1.1 mmol/l of MgSO4, 5.0 mmol/l of glucose, 10.0 mmol/l of 1-(2-hydroxyethyl)piperazine4-(2-ethanesulfonic acid) (HEPES), pH adjusted to 7.4 with NaOH) and aerated with 100% oxygen at a temperature of 37° C. The muscle was stimulated with square-wave pulses of 1 V and 1 ms duration and a frequency of 1 Hz by means of an electrode. The action potential was derived and recorded by means of a glass microelectrode inserted intracellularly, which was filled with 3 mol/l of KCl solution. The compound to be tested was added to the Ringer's solution in a concentration of 2 μmol/l. The action potential was amplified using an amplifier from Hugo Sachs (March-Hugstetten, Germany) and stored and analyzed by means of a computer. The duration of the action potential was determined at a degree of repolarization of 90% (APD90). After an equilibration time of 30 min, the action potential shortening was produced by rinsing the papillary muscle with a hypoxic NaCl solution. The glucose was removed here, the HEPES buffer replaced by PIPES buffer (piperazine-1,4-bis(2-ethanesulfonic acid)), the pH was adjusted to 6.5 and the aeration was carried out using 100% nitrogen. After a time of 60 min, this led to a marked shortening of the APD90. After this time, the test compound was added and the relengthening of the action potential recorded after a further 60 min. The compound-caused relengthening of the APD90 was calculated as a percentage, in relation to the shortening caused by hypoxia. The test compounds were added to the bath solution as stock solution in propanediol.
The following relengthenings of the APD90 values were observed.

[2] = biological target: hSUR1/hKir6.2 (Homo sapiens, UniProt Q09428+Q14654); experiment: Action on hSUR1/hKir6.2-transfected CHO cells (membrane potential, DIBAC4 fluorescence, FLIPR); assay type: cell-based; details: 10 μM; CHO cells activated with diaxozide
From the text: Action on hSUR1/hKir6.2-transfected CHO Cells (Hypoglycemic Action)
The target organ of these compounds is the […] of the pancreas where they block ATP-sensitive potassium channels and produce a release of the hypoglycemic hormone insulin by influencing the electrical potential of the cell membrane.
The extent of this depolarization of the cell membrane, which is caused by the compounds according to the invention, was investigated on CHO cells that were transfected with the cloned components of human pancreatic ATP-sensitive potassium channels, hSUR1, and hKir6.2, and activated by pretreatment with diaxozide, an opener of ATP-sensitive potassium channels. The potency of a compound with respect to the membrane potential of these transfected and activated CHO cells is a measure of the hypoglycemic potential of this compound.
On the day of measurement, the microtiter plates were washed three times with PBS (physiological buffer solution). In the last washing step, 90 μl remained in each well. The cells were then loaded with the fluorescent dye DIBAC4 (Molecular Probes, Portland, Oreg., USA) by addition of 90 μl of a 10-micromolar solution of DIBAC4 in PBS and of 90 μl of a 400 micromolar solution of diaxozide in PBS to each well. After an incubation time of 30 min at 37° C., the microtiter plates were then transferred to a fluorescent microtiter plate reader (FLIPR; Molecular Devices, Sunnyvale, Calif., USA). The cells were stimulated by means of an argon laser (Innova 90; Coherent, Santa Clara, Calif., USA) at a wavelength of 488 nm and the fluorescence emission was measured by means of a CCD camera. The measurement of the membrane potential began after 4 min by addition of 20 μl of a solution of the test compound or of the control solution to each well, the resulting fluorescence emission being measured every 20 seconds for a period of 20 min. The data shown are mean values of at least 4 experiments.

[3] = tested on: chloroform-induced ventricular fibrillation in the mouse; experiment: Chloroform-induced ventricular fibrillation in the mouse; assay type: in vivo; details: 3 mg/kg i.p., 30 min before chloroform anesthesia; untreated control 100%
From the text: Chloroform-induced Ventricular Fibrillation in the Mouse (Action in the Case of Vagal Dysfunction)
Hypoactivity of the vagal nervous system leads to hyperactivity of the sympathetic nervous system. Damages to health that result from an inequilibrium of the autonomic nervous system when the dysfunction affects the heart include the weakening of the myocardial contractile force and fatal cardiac arrhythmias such as ventricular fibrillation. The action of the test compounds was investigated in the model of chloroform-induced ventricular fibrillation in the mouse (see J. W. Lawson, Antiarrhythmic activity of some isoquinoline derivatives determined by a rapid screening procedure in the mouse; J. Pharmacol. Exp. Ther. 160 (1968) 22).
The test compound was dissolved in a mixture of dimethyl sulfoxide (DMSO) and 10 percent sodium hydrogencarbonate solution and administered intraperitoneally (i.p.). The dose was 3 mg/kg. 30 min later, the mouse was anesthetized with chloroform in a beaker. As soon as respiratory arrest had occurred under deep anesthesia (toxic stage of anesthesia), the thorax of the animal was opened using a pair of scissors and the heartbeat was visually inspected. It can be determined here at a glance whether the heart is beating, fibrillating, or has stopped. […]

Sequence of hSUR1/hKir6.2 (Q09428 whole entry): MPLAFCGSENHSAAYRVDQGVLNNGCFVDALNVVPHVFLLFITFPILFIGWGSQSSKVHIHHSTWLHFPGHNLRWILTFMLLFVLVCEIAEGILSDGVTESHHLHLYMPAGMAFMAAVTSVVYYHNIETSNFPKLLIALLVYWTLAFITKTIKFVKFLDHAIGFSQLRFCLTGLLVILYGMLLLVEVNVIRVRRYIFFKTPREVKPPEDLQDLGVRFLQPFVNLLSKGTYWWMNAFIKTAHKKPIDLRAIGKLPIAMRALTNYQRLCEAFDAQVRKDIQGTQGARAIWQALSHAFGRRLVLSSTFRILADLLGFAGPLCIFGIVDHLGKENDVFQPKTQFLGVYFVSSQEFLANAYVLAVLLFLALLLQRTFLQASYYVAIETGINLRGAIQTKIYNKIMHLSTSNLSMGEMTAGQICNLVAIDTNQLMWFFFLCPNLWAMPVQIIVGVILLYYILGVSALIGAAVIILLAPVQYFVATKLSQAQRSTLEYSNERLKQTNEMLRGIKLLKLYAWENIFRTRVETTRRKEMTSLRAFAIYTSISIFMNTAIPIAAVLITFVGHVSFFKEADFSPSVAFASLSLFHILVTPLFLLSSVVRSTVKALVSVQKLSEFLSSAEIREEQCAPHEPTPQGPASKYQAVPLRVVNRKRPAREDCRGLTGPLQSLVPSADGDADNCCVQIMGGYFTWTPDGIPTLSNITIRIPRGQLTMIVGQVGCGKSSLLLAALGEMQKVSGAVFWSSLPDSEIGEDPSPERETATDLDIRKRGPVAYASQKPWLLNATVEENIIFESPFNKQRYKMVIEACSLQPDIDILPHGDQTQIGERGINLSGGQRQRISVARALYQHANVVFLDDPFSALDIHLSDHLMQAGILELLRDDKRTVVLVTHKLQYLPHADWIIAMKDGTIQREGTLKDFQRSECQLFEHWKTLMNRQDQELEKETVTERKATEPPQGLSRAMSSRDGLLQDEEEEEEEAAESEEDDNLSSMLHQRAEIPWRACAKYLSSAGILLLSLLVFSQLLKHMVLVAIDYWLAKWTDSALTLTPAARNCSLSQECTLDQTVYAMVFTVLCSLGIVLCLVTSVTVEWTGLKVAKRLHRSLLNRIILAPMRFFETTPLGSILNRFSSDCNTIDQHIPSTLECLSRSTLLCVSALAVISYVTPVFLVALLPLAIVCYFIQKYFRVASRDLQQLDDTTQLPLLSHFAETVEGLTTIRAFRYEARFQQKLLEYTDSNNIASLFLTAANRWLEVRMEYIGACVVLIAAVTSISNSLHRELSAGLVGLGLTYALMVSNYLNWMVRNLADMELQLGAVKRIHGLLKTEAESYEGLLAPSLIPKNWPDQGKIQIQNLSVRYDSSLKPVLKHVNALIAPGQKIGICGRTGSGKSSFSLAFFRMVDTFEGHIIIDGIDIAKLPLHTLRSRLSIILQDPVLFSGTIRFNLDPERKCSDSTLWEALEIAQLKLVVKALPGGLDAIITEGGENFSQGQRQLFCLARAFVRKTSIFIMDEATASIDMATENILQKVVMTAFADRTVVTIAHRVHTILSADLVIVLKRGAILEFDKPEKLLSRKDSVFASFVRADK
Sequence of hSUR1/hKir6.2 (Q14654 whole entry): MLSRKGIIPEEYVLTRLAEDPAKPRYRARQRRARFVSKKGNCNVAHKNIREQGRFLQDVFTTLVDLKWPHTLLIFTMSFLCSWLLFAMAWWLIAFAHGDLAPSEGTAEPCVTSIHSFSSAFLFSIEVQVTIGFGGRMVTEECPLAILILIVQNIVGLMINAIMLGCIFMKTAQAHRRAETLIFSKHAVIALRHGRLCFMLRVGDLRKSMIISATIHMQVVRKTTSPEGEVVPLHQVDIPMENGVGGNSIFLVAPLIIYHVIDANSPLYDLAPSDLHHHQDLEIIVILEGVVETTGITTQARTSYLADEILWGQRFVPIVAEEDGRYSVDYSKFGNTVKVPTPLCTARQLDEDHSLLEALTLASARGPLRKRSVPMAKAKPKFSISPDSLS

Row | Compound | melting point [°C] | other results
1 | CCCOc1ccc(CCNC(=O)c2cnc3ccccc3c2)cc1S(=O)(=O)NC(=O)NC [Example 9] | 120 | –
2 | CCCOc1ccc(CCNC(=O)c2cnc3ccccc3c2)cc1S(=O)(=O)NC(=S)NC [Example 8, 1-[5-(2-(3-Quinolinecarboxamido)ethyl)-2-propyloxyphenylsulfonyl]-3-methyl-thiourea] | – | Relengthening of the APD90 shortened by hypoxia [1]: 35%
3 | CNC(=S)NS(=O)(=O)c1cc(CCNC(=O)c2cnc3ccccc3c2)ccc1OCCOC [Example 2, 1-[5-(2-(3-Quinolinecarboxamido)ethyl)-2-(2-methoxyethoxy)phonylsulfonyl]-3-methyl-thiourea] | – | Relengthening of the APD90 shortened by hypoxia [1]: 42%; Blockade hSUR1/hKir6.2 [2]: 6.1%
4 | COc1ccc(CCNC(=O)C2=CCCCC2)cc1S(=O)(=O)NC(=S)NC1CCCCC1 [Example 21, 1-[5-(2-(1-Cyclohex-1-enecarboxamido)ethyl)-2-methoxyphenylsulfonyl]-3-cyclohexyl-thiourea] | – | Fibrillation ratio (in %) [3]: 70%
5 | CNC(=S)NS(=O)(=O)c1cc(CCNC(=O)c2cnc3ccccc3c2)ccc1OC [Example 1, 1-[5-(2-(3-Quinolinecarboxamido)ethyl)-2-methoxyphenylsulfonyl]-3-methyl-thiourea] | 85 | –
6 | CNC(=O)NS(=O)(=O)c1cc(CCNC(=O)c2cnc3ccccc3c2)ccc1OCCOCC(F)(F)F [Example 6, 1-[5(2-(3Quinolinecarboxamido)ethyl)-2-(2(2,2,2-trifluoroethoxy)ethoxy)phenyl-sulfonyl]-3-methyl-urea] | 128 | –
7 | CCOc1ccc(CCNC(=O)c2cnc3ccccc3c2)cc1S(=O)(=O)NC(=S)NC [Example 7, 1-[5-(2-(3-Quinolinecarboxamido)ethyl)-2-ethoxyphenylsulfonyl]-3-methyl-thiourea] | 189 to 193 | –
8 | CNC(=S)NS(=O)(=O)c1cc(CCNC(=O)c2cnc3ccccc3c2)ccc1OCCOCC(F)(F)F [Example 4, 1-[5-(2-(3-Quinolinecarboxamido)ethyl)-2-(2-(2,2,2-trifluoroethoxy)ethoxy)phenyl-sulfonyl]-3-methyl-thiourea] | – | Relengthening of the APD90 shortened by hypoxia [1]: 69%; Blockade hSUR1/hKir6.2 [2]: 69.8%
9 | COc1ccc(CCNC(=O)C2=CCCCC2)cc1S(=O)(=O)NC(=S)NC(C)C [Example 20, 1-[5-(2-(1-Cyclohex-1-enecarboxamido)ethyl)-2-methoxyphenylsulfonyl]-3-isopropyl-thiourea] | – | Blockade hSUR1/hKir6.2 [2]: 38.3%; Fibrillation ratio (in %) [3]: 70%
10 | CNC(=O)NS(=O)(=O)c1cc(CCNC(=O)c2cnc3ccccc3c2)ccc1OCCOC [Example 3, 1-[5-(2-(3-Quinolinecarboxamido)ethyl)-2-(2-methoxyethoxy)phenylsulfonyl]-3-methyl-urea] | – | Blockade hSUR1/hKir6.2 [2]: 0%
11 | CNC(=S)NS(=O)(=O)c1cc(CCNC(=O)C=C(C)C)ccc1OCCOC [Example 17, 1-[5-(2-(3-Methylbut-2-eneamido)ethyl)-2-(2-methoxyethoxy)phenylsulfonyl]-3-methyl-thiourea] | – | Relengthening of the APD90 shortened by hypoxia [1]: 34%

Second part, led by results:

Row | melting point [°C] | Compound | other results
12 | 50 to 52 | CCOCCOc1ccc(CCNC(=O)c2cnc3ccccc3c2)cc1S(=O)(=O)NC(=S)NC [Example 10, 1-[5-(2-(3-Quinolinecarboxamido)ethyl)-2-(2-ethoxyethoxy)phenylsulfonyl]-3-methyl-thiourea] | –
13 | 179 to 182 | CNC(=S)NS(=O)(=O)c1cc(CCNC(=O)C2=CCCCC2)ccc1OC [Example 18, 1-[5-(2-(1-Cyclohex-1-enecarboxamido)ethyl)-2-methoxyphenylsulfonyl]-3-methyl-thiourea] | –
14 | 199 to 203 | CNC(=O)NS(=O)(=O)c1cc(CCNC(=O)C=C(C)C)ccc1OC [Example 16, 1-[5-(2-(3-Methylbut-2-eneamido)ethyl)-2-methoxyphenylsulfonyl]-3-methyl-urea] | –
15 | 155 to 156 | CNC(=S)NS(=O)(=O)c1cc(CCNC(=O)c2cnc3ccccc3c2)ccc1-c1ccco1 [Example 14, 1-[5-(2-(3-Quinolinecarboxamido)ethyl)-2-(2-furyl)phenylsulfonyl]-3-methyl-thiourea] | –
16 | 150 to 155 | CNC(=S)NS(=O)(=O)c1cc(CCNC(=O)C2=CCCCC2)ccc1OCCOC [Example 22, 1-[5-(2-(1-Cyclohex-1-enecarboxamido)ethyl)-2-(2-methoxyethoxy)phenylsulfonyl]-3-methyl-thiourea] | –
17 | 124 | CNC(=S)NS(=O)(=O)c1cc(CCNC(=O)c2cnc3ccccc3c2)ccc1OCCc1ccccc1 [Example 12, 1-[5-(2-(3-Quinolinecarboxamido)ethyl)-2-(2-phenylethoxy)phenylsulfonyl]-3-methyl-thiourea] | –
18 | 110 | CNC(=S)NS(=O)(=O)c1cc(CCNC(=O)c2cnc3ccccc3c2)ccc1OCCOc1ccccc1 [Example 11, 1-[5-(2-(3-Quinolinecarboxamido)ethyl)-2-(2-phenoxyethoxy)phenylsulfonyl]-3-methyl-thiourea] | Blockade hSUR1/hKir6.2 [2]: 67.5%
19 | 153 to 154 | CNC(=S)NS(=O)(=O)c1cc(CCNC(=O)C=C(C)C)ccc1OC [Example 15, 1-[5-(2-(3-Methylbut-2-eneamido)ethyl)-2-methoxyphenylsulfonyl]-3-methyl-thiourea] | –
20 | 75 | CNC(=S)NS(=O)(=O)c1cc(CCNC(=O)c2cnc3ccccc3c2)ccc1OCC(F)(F)F [Example 13, 1-[5-(2-(3-Quinolinecarboxamido)ethyl)-2-(2,2,2-trifluoroethoxy)phenylsulfonyl]-3-methyl-thiourea] | –
21 | 175 | CNC(=O)NS(=O)(=O)c1cc(CCNC(=O)C2=CCCCC2)ccc1OC [Example 19, 1-[5-(2-(1-Cyclohex-1-enecarboxamido)ethyl)-2-methoxyphenylsulfonyl]-3-methyl-urea] | –
